Assay results from patent US6875451B2, “Compositions and methods for the treatment of primary and metastatic neoplastic diseases using arsenic compounds” (PolaRx Biopharmaceuticals Inc., priority 1997, dated 2005).

Experiments:
Type in all cases: cell-based
[1] = tested on: COLO 205; experiment: SRB growth assay, 6 days exposure, colon cancer; conditions: COLO 205, 6 days
Protocol: (§1) Arsenic trioxide (1 mg/ml, 10 mg/ampoule, manufactured by Taylor Pharmaceuticals, Decatur, Ill.) was tested at five concentrations each at 10-fold dilutions, i.e., 10^−5, 10^−6, 10^−7, 10^−8 and 10^−9 μg/ml.
(§2) The in vitro tests were performed by incubating the test cells in the presence of the indicated concentration of arsenic trioxide under standard culture conditions for a designated period of time, which is followed by a sulforhodamine B (SRB) protein assay to estimate cell viability or growth. The cell lines are organized into subpanels according to the origin of the cell lines, e.g., leukemia, breast cancer, etc. A description of the cell lines and method of testing is described in Monk et al. (1997, Anticancer Drug Des. 12:533-41) and Weinstein et al., (1997, Science 275:343-9), which are incorporated herein in their entirety.
(§3) The measurement of an effect is expressed in Percentage Growth (PG). The measured effect of the compound on a cell line is calculated according to one or the other of the following two expressions: If (Mean ODtest−Mean ODzero)≧0. then PG=100×(Mean ODtest−Mean ODzero)/(Mean ODctrl−Mean ODzero) If (Mean ODtest−Mean ODzero)<0. then PG=100×(Mean ODtest−Mean ODzero)/(Mean ODzero where: • Mean ODzero=the average of optical density measurements of SRB-derived color just before exposure of cells to the test compounds; • Mean ODtest=the average of optical density measurements of SRB-derived color after exposure of cells to the test compound for a designated period of time; and • Mean ODctrl=the average of optical density measurements of SRB-derived color after with no exposure of cells to the test compound for a designated period of time
(§4) The first two columns describe the subpanel (e.g., leukemia) and cell line (e.g., CCRF-CEM) involved. The next two columns list the Mean ODzero and Mean ODctrl; the next five columns list the Mean ODtest for each of five different concentrations. Each concentration is expressed as the log10 (molar or μg/ml). The next five columns list the calculated PGs for each concentration. The response parameters GI50, TGI and LC50 are interpolated values representing the concentrations at which the PG is +50, 0, and −50, respectively. Sometimes these response parameters cannot be obtained by interpolation. If, for instance, all of the PGs in a given row exceed +50, then none of the three parameters can be obtained by interpolation. In such a case, the value given for each response parameter is the highest concentration tested and is preceded by a “>” sign. This practice is extended similarly to the other possible situations where a response parameter cannot be obtained by interpolation.
(§5) In the first set, the cells from 56 different cancer cell lines were exposed to five concentrations of arsenic trioxide continuously for two days prior to performing the SRB assay. In the second set, the cells from 50 different cell lines (a subset of the first 56 cell lines, plus the renal cancer cell line 786-0) were exposed continuously for six days prior to the SRB assay.

[2] = tested on: HCT-116; experiment: SRB growth assay, 6 days exposure, colon cancer; conditions: HCT-116, 6 days
Protocol: as §1, §2, §3, §4, §5

[3] = tested on: HCT-15; experiment: SRB growth assay, 6 days exposure, colon cancer; conditions: HCT-15, 6 days
Protocol: as §1, §2, §3, §4, §5

[4] = tested on: HT29; experiment: SRB growth assay, 6 days exposure, colon cancer; conditions: HT29, 6 days
Protocol: as §1, §2, §3, §4, §5

[5] = tested on: KM12; experiment: SRB growth assay, 6 days exposure, colon cancer; conditions: KM12, 6 days
Protocol: as §1, §2, §3, §4, §5

[6] = tested on: SW-620; experiment: SRB growth assay, 6 days exposure, colon cancer; conditions: SW-620, 6 days
Protocol: as §1, §2, §3, §4, §5

[7] = tested on: 50 different cell lines; experiment: NCI cancer cell line panel, SRB assay, second set, 6 days exposure (whole panel, mean graph)
Protocol: as §1, §2
The measurement of an effect is expressed in Percentage Growth (PG). […]
The first two columns describe the subpanel (e.g., leukemia) and cell line (e.g., CCRF-CEM) involved. […] Each concentration is expressed as the log10 (molar or μg/ml). The next five columns list the calculated PGs for each concentration. […]

[8] = read-out: LC50 (the source's name)

## arsenic trioxide
[1]
  TGI: >1.26E−05
[1]; Log 10 Concentration −4.9
  Mean Optical Densities: 0.024
  Percent Growth: 0%
[1]; Log 10 Concentration −5.9
  Mean Optical Densities: 1.404
  Percent Growth: 59%
[1]; Log 10 Concentration −6.9
  Mean Optical Densities: 2.283
  Percent Growth: 97%
[1]; Log 10 Concentration −7.9
  Mean Optical Densities: 2.026
  Percent Growth: 86%
[1]; Log 10 Concentration −8.9
  Mean Optical Densities: 2.308
  Percent Growth: 98%
[1]; [8]
  CC50: > 12.6 µM
[2]
  TGI: >1.26E−05
[2]; Log 10 Concentration −4.9
  Mean Optical Densities: 1.931
  Percent Growth: 56%
[2]; Log 10 Concentration −5.9
  Mean Optical Densities: 3.284
  Percent Growth: 96%
[2]; Log 10 Concentration −6.9
  Mean Optical Densities: 3.381
  Percent Growth: 99%
[2]; Log 10 Concentration −7.9
  Mean Optical Densities: 3.289
  Percent Growth: 96%
[2]; Log 10 Concentration −8.9
  Mean Optical Densities: 3.395
  Percent Growth: 99%
[2]; [8]
  CC50: > 12.6 µM
[3]
  TGI: >1.26E−05
[3]; Log 10 Concentration −4.9
  Mean Optical Densities: 0.404
  Percent Growth: 10%
[3]; Log 10 Concentration −5.9
  Mean Optical Densities: 3.432
  Percent Growth: 89%
[3]; Log 10 Concentration −6.9
  Mean Optical Densities: 4.227
  Percent Growth: 110%
[3]; Log 10 Concentration −7.9
  Mean Optical Densities: 3.921
  Percent Growth: 102%
[3]; Log 10 Concentration −8.9
  Mean Optical Densities: 3.965
  Percent Growth: 103%
[3]; [8]
  CC50: > 12.6 µM
[4]
  TGI: >1.26E−05
[4]; Log 10 Concentration −4.9
  Mean Optical Densities: 0.027
  Percent Growth: 0%
[4]; Log 10 Concentration −5.9
  Mean Optical Densities: 1.476
  Percent Growth: 48%
[4]; Log 10 Concentration −6.9
  Mean Optical Densities: 2.706
  Percent Growth: 88%
[4]; Log 10 Concentration −7.9
  Mean Optical Densities: 2.988
  Percent Growth: 98%
[4]; Log 10 Concentration −8.9
  Mean Optical Densities: 3.189
  Percent Growth: 104%
[4]; [8]
  CC50: > 12.6 µM
[5]
  TGI: >1.26E−05
[5]; Log 10 Concentration −4.9
  Mean Optical Densities: 0.017
  Percent Growth: 1%
[5]; Log 10 Concentration −5.9
  Mean Optical Densities: 0.036
  Percent Growth: 4%
[5]; Log 10 Concentration −6.9
  Mean Optical Densities: 0.507
  Percent Growth: 83%
[5]; Log 10 Concentration −7.9
  Mean Optical Densities: 0.533
  Percent Growth: 87%
[5]; Log 10 Concentration −8.9
  Mean Optical Densities: 0.487
  Percent Growth: 80%
[5]; [8]
  CC50: > 12.6 µM
[6]
  TGI: 3.43E−06
[6]; Log 10 Concentration −4.9
  Mean Optical Densities: 0.007
  Percent Growth: −72%
[6]; Log 10 Concentration −5.9
  Mean Optical Densities: 1.475
  Percent Growth: 55%
[6]; Log 10 Concentration −6.9
  Mean Optical Densities: 2.337
  Percent Growth: 88%
[6]; Log 10 Concentration −7.9
  Mean Optical Densities: 2.308
  Percent Growth: 87%
[6]; Log 10 Concentration −8.9
  Mean Optical Densities: 2.613
  Percent Growth: 99%
[7]; second set of tests, all cell lines tested
  reducing cell growth: effective in reducing cell growth against all the cell lines tested
[7]; several melanoma cell lines
  sensitivity at the various principal response parameters: especially sensitive
